# Read-outs that look alike come from different tables or passages of the source. Where a SMILES comes first, the peptide text is derived from it. Where no end group is shown, it is not given here. [ ]: non-standard residue; d: D form. The star is where a group is joined. Guan = guanidino group added at N-terminus (guanidation), N=C(N)*; NMeL = CN[C@@H](CC(C)C)C(=O)O; Agp = N=C(N)NC[C@H](N)C(=O)O; Orn = NCCC[C@H](N)C(=O)O; OPr = CCCO*
# Experiments:
# [1] = tested on: E. coli BL 21 AI; test: Growth inhibition assay (MIC); format: cell-based, Escherichia coli; conditions: 1% TSB, 37° C., 20 hrs
# Description: (§1) The minimal inhibition concentrations (MIC) of the apidaecin-derived peptides and peptide-derivatives were determined by a growth inhibition assay using a serial peptide dilution in sterilized round-bottom 96-well plates (polystyrene, U-bottom, Greiner Bio-One GmbH) with a final volume of 100 μL per well. The bacteria, e.g., E. coli BL21 A1, were grown in nutrient broth (NB, Carl Roth GmbH+Co. KG, Karlsruhe, Germany) at 37° C. over night. To each well of the 96-well plate, 50 μL of the overnight culture adjusted to 5×10^6 CFU/mL in 1% TSB were added. Lyophilized peptides and peptidomimetics were dissolved in 1% TSB (tryptic soy broth) or water to give a final concentration of 250 μg/mL. Fifty μL of the peptide or peptidomimetics solution were added to the first well of a row on the plate and mixed. Fifty μL of the first well containing the peptide solution were transferred to the second well, mixed and again 50 μL transferred to the next well and so on. Thereby, a two-fold dilution series was obtained starting at 250 μg/mL in the first well down to 120 ng/mL in the 12th well of a row giving a final peptide or peptidomimetics concentration from 125 μg/mL (well 1) to 60 ng/mL (well 12). Plates were incubated at 37° C. for 20 hrs. The absorbance was measured at 595 nm using a TECAN micro plate spectrophotometer (Tecan, Germany). All peptides and peptidomimetics were measured in triplicates. Sterilized water was used as a negative control.
# (§2) The bacteria strains were tested: • Eschericha coli 1103, 10233, BL 21 AI, DC 2, • Klebsiella pneumoniae 681, • Micrococcus luteus ATCC 10240, • Mycobacterium vaccae • Bactillus subtillis 347.
# [2] = tested on: M. luteus ATCC 10240; format: cell-based, Micrococcus luteus
# Description: as §1, §2
# [3] = tested on: B. subtilis 347; format: cell-based, Bactillus subtillis; conditions: 1% TSB, 37° C., 20 hrs
# Description: as §1, §2
# [4] = tested on: E. coli 1103; format: cell-based, Escherichia coli; conditions: 1% TSB, 37° C., 20 hrs
# Description: as §1, §2
# [5] = tested on: K. pneumonia 681; format: cell-based, Klebsiella pneumoniae; conditions: 1% TSB, 37° C., 20 hrs
# Description: as §1, §2
# [6] = tested on: E. coli 45849; test: Growth inhibition assay (MIC); format: cell-based, Escherichia coli; conditions: multidrug resistant strain; 1% TSB, 37° C., 20 hrs
# Description: as §1
# (§3) The following multidrug resistant bacteria strains were tested: • Eschericha coli 45849 and D31, • Klebsiella pneumoniae 123132 and K6, • Salmonella typhi S5 and Salmonella enterica subsp. enterica serovar Typhimurium (ATCC 700408), • Rhizobium radiobacter (ATCC 15955 deposited as Agrobacterium tumefaciens).
# [7] = tested on: S. typhi S5; format: cell-based, Salmonella typhi
# Description: as §1, §3
# [8] = tested on: E. coli D31; format: cell-based, Escherichia coli
# Description: as §1, §3
# [9] = tested on: K. Pneumonia 123132; test: Growth inhibition assay (MIC); format: cell-based, Klebsiella pneumoniae; conditions: multidrug resistant strain; 1% TSB, 37° C., 20 hrs
# Description: as §1, §3
# [10] = tested on: K. Pneumonia K6, ATCC 700603; test: Growth inhibition assay (MIC); format: cell-based, Klebsiella pneumoniae; conditions: multidrug resistant strain; 1% TSB, 37° C., 20 hrs
# Description: as §1, §3
# [11] = tested on: S. enterica subsp. Enterica serovar. typhi G10215 ATCC 700408; format: cell-based, Salmonella enterica
# Description: as §1, §3
# [12] = tested on: R. radiobatter ATCC 15955; test: Growth inhibition assay (MIC); format: cell-based, Rhizobium radiobacter; conditions: multidrug resistant strain; 1% TSB, 37° C., 20 hrs
# Description: as §1, §3
# [13] = multidrug resistant strain, 1% TSB, 37° C., 20 hrs
compound,measurement,setting,value
86 ([Orn]NNRPVYIPRPRPPHPRPIRV-NH2) [compound 86],MIC E. coli BL 21 AI,[1],3.91 mg/L
same,MIC M. luteus ATCC 10240,"[2]; 1% TSB, 37° C., 20 hrs",0.98 mg/L
same,MIC B. subtilis 347,[3],62.5 mg/L
146 (Guan-[Orn]NNRPVYIPRPRPPHP[Agp]L-NH2) [compound 146],MIC E. coli BL 21 AI,[1],32 mg/L
same,MIC M. luteus ATCC 10240,"[2]; 1% TSB, 37° C., 20 hrs",4 mg/L
same,MIC E. coli 1103,[4],64 mg/L
same,MIC K. pneumonia 681,[5],32 mg/L
same,MIC B. subtilis 347,[3],125 mg/L
147 (Guan-[Orn]NNRPVYIPRPRPPHPRL-OPr) [compound 147],MIC E. coli BL 21 AI,[1],4 mg/L
same,MIC M. luteus ATCC 10240,"[2]; 1% TSB, 37° C., 20 hrs",16 mg/L
same,MIC E. coli 1103,[4],16 mg/L
same,MIC K. pneumonia 681,[5],8 mg/L
same,MIC B. subtilis 347,[3],64 mg/L
159 (GNNRPVYIPRPRPPHPRL) [compound 159],MIC E. coli 45849,[6],1 mg/L
same,MIC S. typhi S5,[7]; [13],0.25 mg/L
same,MIC E. coli D31,[8]; [13],1 mg/L
same,MIC K. Pneumonia 123132,[9],4 mg/L
same,"MIC K. Pneumonia K6, ATCC 700603",[10],4 mg/L
same,MIC S. enterica subsp. Enterica serovar. typhi G10215 ATCC 700408,[11]; [13],0.25 mg/L
CC[C@H](C)[C@H](NC(=O)[C@H](CCCNC(=N)N)NC(=O)[C@@H]1CCCN1C(=O)[C@H](Cc1c[nH]cn1)NC(=O)[C@@H]1CCCN1C(=O)[C@@H]1CCCN1C(=O)[C@H](CCCNC(=N)N)NC(=O)[C@@H]1CCCN1C(=O)[C@H](CCCNC(=N)N)NC(=O)[C@@H]1CCCN1C(=O)[C@@H](NC(=O)[C@H](Cc1ccc(O)cc1)NC(=O)[C@@H](NC(=O)[C@@H]1CCCN1C(=O)[C@H](CCCNC(=N)N)NC(=O)[C@H](CC(N)=O)NC(=O)[C@H](CC(N)=O)NC(=O)[C@@H](N)CCCN)C(C)C)[C@@H](C)CC)C(N)=O [compound 16] (H-[Orn]NNRPVYIPRPRPPHPRI-NH2),MIC E. coli D31,"[8]; D31, 20 h",128 mg/L
same,"MIC K. Pneumonia K6, ATCC 700603",[10],32 mg/L
same,MIC S. enterica subsp. Enterica serovar. typhi G10215 ATCC 700408,"[11]; ATCC 700408, 20 h",2 mg/L
same,MIC E. coli BL 21 AI,[1],0.98 mg/L
same,MIC M. luteus ATCC 10240,"[2]; ATCC 10240, 20 h",3.91 mg/L
CC[C@H](C)[C@H](NC(=O)[C@H](Cc1ccc(O)cc1)NC(=O)[C@@H](NC(=O)[C@@H]1CCCN1C(=O)[C@H](CCCNC(=N)N)NC(=O)[C@H](CC(N)=O)NC(=O)[C@H](CC(N)=O)NC(=O)CN)C(C)C)C(=O)N1CCC[C@H]1C(=O)N[C@@H](CCCNC(=N)N)C(=O)N1CCC[C@H]1C(=O)N[C@@H](CCCNC(=N)N)C(=O)N1CCC[C@H]1C(=O)N1CCC[C@H]1C(=O)N[C@@H](Cc1c[nH]cn1)C(=O)N1CCC[C@H]1C(=O)N[C@@H](CCCNC(=N)N)C(=O)N(C)[C@@H](CC(C)C)C(N)=O [compound 34] (H-GNNRPVYIPRPRPPHPR[NMeL]-NH2),MIC E. coli 45849,[6],4 mg/L
same,MIC S. typhi S5,"[7]; S5, 20 h",8 mg/L
same,MIC E. coli D31,"[8]; D31, 20 h",8 mg/L
same,MIC K. Pneumonia 123132,[9],32 mg/L
same,"MIC K. Pneumonia K6, ATCC 700603",[10],32 mg/L
same,MIC S. enterica subsp. Enterica serovar. typhi G10215 ATCC 700408,"[11]; ATCC 700408, 20 h",4 to 8 mg/L
same,MIC R. radiobatter ATCC 15955,[12],1.3 mg/L
